Measured values as given in patent US20050164196A1, “Methods to predict patient responsiveness to tyrosine kinase inhibitors” (priority 2002, published 2005).
Several values for one entry are separate records, joined by “and”; a condition that tells them apart may be missing. Identical values can stand only once. Counter-ions that a name gives are not always drawn. Like-named read-outs stand apart in the source and are kept apart here.

Key:
CML = details: cited from earlier work
[1] = of 54 CML patients treated with 300 mg or more
[2] = rs2290573 CC genotype, n = 26, 18-month data, ITT principle
[3] = rs2290573 CT, TT genotype, n = 79, 18-month data, ITT principle

For `Cc1ccc(NC(=O)c2ccc(CN3CCN(C)CC3)cc2)cc1Nc1nccc(-c2cccnc2)n1` [Imatinib, Imatinib mesylate], the “major responses (0-35% of cells in metaphase positive for the Ph′ chromosome)” value (CML; % of the 54 patients who received 300 mg or more) is listed as 31%, the “complete cytogenetic remission (CCR)” value (CML; [1]) is listed as 7 patients and the “complete hematologic responses (CHR)” value (CML; [1]) is listed as 53 patients. The cytogenic responses (CML; [1]) was 29 patients, the “major responses (0-35% of cells in metaphase positive for the Ph′ chromosome)” value (CML; [1]) was 17 patients and the events of progression (Ph+ CML; genotyped patients of the Imatinib arm, 18-month data, ITT principle) was 10 events. The “TTP (months)” value (Ph+ CML; individual patients with disease progression among the 105 analyzed patients, 18-month data, one line per patient, listed as STI571) was 16.1 months and 16.3 months and 11.8 months and 17.0 months and 13.4 months and 16.4 months and 9.7 months and 15.8 months and 5.6 months and 6.8 months, the “individuals who exhibited disease progression” value (Ph+ CML; out of the entire 553 treated patients, 12-month data) was 24 individuals and the “patients who experienced progression events” value (Ph+ CML; rs2290573 CC genotype, 26 patients, 18-month data) was 23.1%. The “Death (as primary reason for discontinuation)” value (Ph+ CML; [2]) was 0 (0) n (%), the “Increase in WBC (approved by SMC)” value (Ph+ CML; [2]) was 1 (3.8) n (%) and the “Loss of CHR” value (Ph+ CML; [2]) was 1 (3.8) n (%). The “Loss of MCyR” value (Ph+ CML; [2]) was 4 (15.4) n (%), the “Progression to AP or BC” value (Ph+ CML; [2]) was 0 (0) n (%) and the “Total number of patients with events (progression)” value (Ph+ CML; [2]) was 6 (23.1) n (%). The “patients who experienced progression events” value (Ph+ CML; rs2290573 CT or TT genotype, 79 patients, 18-month data) was 5.1%, the “Death (as primary reason for discontinuation)” value (Ph+ CML; [3]) was 0 (0) n (%) and the “Increase in WBC (approved by SMC)” value (Ph+ CML; [3]) was 0 (0) n (%). For the same compound, the “Loss of CHR” value (Ph+ CML; [3]) was 2 (2.5) n (%), the “Loss of MCyR” value (Ph+ CML; [3]) was 0 (0) n (%) and the “Progression to AP or BC” value (Ph+ CML; [3]) was 2 (2.5) n (%). For the same compound, the “Total number of patients with events (progression)” value (Ph+ CML; [3]) was 4 (5.1) n (%).
